“Also recorded” adds a separate entry of the source.
What was measured:
[1] = tested on: TNBS-induced colitis in rats; experiment: TNBS-induced colitis in rats, chronic 8-day study
Protocol: Male Wistar rats (250-300 g) were starved for 24 hours prior to being anaesthetised with ketamine (80 mg/kg i.p.) and xylazine (8 mg/kg i.p.). […] 120 mg/kg TNBS (50 mg/mL solution) along with 250 μL ethanol (100%) was then instilled to rats, which remained in the head-down position for 30 min to prevent leakage. Sham-operated rats (rats without colitis) received either saline alone or 250 μL ethanol and saline. Rats were then allowed to recover under observation.
At the completion of each experiment, rats were anaesthetized with zolazapam (50 mg/kg, IP) and xylazine (12 mg/kg, IP), and blood was collected and serum stored at −20° C. for later determination of TNF-α concentrations. Colons were dissected, and the distal 8-cm rinsed with saline and scored for clinical macroscopic damage by an independent blinded observer, using a scale of 0-13 as set out below (Bobin-Dubigeon et al, 2001). A section of the affected colon was then collected, weighed, placed in an 80° C. oven for 24 h, then reweighed and the wet-to-dry weight ratio determined as a measure of colon oedema (Rachmilewitz et al., 1989). A separate section of affected colon was also collected and homogenized with 1 mL phosphate buffered saline, sonicated for 20 seconds and centrifuged (14 000×g, 10 min). The resulting supernatant was then either stored (−20° C.) for later TNF-α determination, or used immediately in an assay for the determination of myeloperoxidase (MPO) levels. Briefly, the assay involved the addition of 20 μL substrate (o-dianisidine, 2.85 mg/mL, Sigma, U.S.A.; and 0.85% hydrogen peroxidase) to a 1:40 dilution of supernatant in phosphate buffered saline. […] Results for colon MPO content were converted to absorbance units/g tissue. Additional sections of colon were removed and stored in 10% formalin for histopathological analysis. Fixed colonic samples were embedded in paraffin wax, and sections were stained using a haematoxylin and eosin stain, photographed and examined by an independent observer in a blinded fashion. Tissue and serum TNF-α levels were determined from stored samples using an enzyme-linked immunoabsorbent assay as previously described (Arumugam et al, 2002), using undiluted samples. Results for colonic TNF-α content were then converted to pg TNF-α /g tissue.
In the 8-day study, drug-treated rats were treated both prior to colitis induction (2 days before; prevention) or following colitis induction (24 hours after; reversal).
All experimental results are expressed as means±standard error of the mean (SEM). Data analysis was performed using GraphPad Prism 3.0 software (GraphPad Software, Inc. USA). Statistical comparisons were made between drug-treated groups and colitis control animals using a one-way analysis of variance followed by a Dunnett comparison post-test analysis. Statistical significance was assessed at P<0.05.

membrane attack complex = conditions: Arumugam et al, 2003; cited from earlier work
C3a receptor = molecular target: T1, C3a receptor (Homo sapiens, UniProt Q16581); conditions: Finch et al, 1999; cited from earlier work
T1 sequence (Q16581 1-482): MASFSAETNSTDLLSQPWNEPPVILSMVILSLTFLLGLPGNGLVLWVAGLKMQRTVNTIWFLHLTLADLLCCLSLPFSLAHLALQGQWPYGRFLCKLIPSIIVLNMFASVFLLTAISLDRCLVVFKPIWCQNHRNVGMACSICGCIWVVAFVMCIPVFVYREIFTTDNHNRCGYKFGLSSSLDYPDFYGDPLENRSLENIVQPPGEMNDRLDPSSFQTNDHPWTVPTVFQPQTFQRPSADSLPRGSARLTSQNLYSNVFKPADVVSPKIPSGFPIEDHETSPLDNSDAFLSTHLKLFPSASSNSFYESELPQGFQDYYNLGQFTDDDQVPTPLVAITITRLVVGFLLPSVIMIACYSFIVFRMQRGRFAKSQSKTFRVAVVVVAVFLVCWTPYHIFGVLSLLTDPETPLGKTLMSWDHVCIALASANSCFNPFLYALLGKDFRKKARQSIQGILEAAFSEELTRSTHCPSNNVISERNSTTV

C5a receptor = conditions: cited from earlier work
[2] = tested on: TNBS-induced colitis in rats; experiment: TNBS-induced colitis in rats, acute 24-hour study; assay type: in vivo, rat; conditions: for colon macroscopic score: scale 0-13
Protocol: Two time-frames were chosen for this study, an acute time frame (24 hours), and a chronic time frame (8-days). During the course of the study both body weight and food eaten were measured daily. In the 24-hour study, all drug treatments commenced 2 days prior to instillation of TNBS (prevention). PMX53-, prednisolone- and combination-treated rats were treated once daily, and C3a antagonist-treated rats were dosed twice daily. Rats treated with the anti-TNF-α monoclonal antibody, infliximab, were dosed intravenously on one occasion, 2 days prior to TNBS instillation.
Statistical significance was assessed at P<0.05.

[3] = 8 days, post-treated 1 mg/kg/day SC, P>0.05
[4] = 8 days, pre-treated 1 mg/kg/day SC, P<0.05
[5] = 8 days, pre-treated rats, haematoxylin and eosin sections, vs drug-free rats
[6] = post-treatment (from 24 h after colitis induction; reversal)
[7] = pre-treatment (from 2 days before colitis induction)
[8] = 8 days, prior to induction (10 mg/kg/day oral and 0.3 mg/kg/day SC) or 24 h after induction (1 and 10 mg/kg/day oral), P<0.05
[9] = 8 days, prior to induction (10 mg/kg/day oral and 0.3 mg/kg/day SC) or 24 h after induction (1 and 10 mg/kg/day oral), P<0.05, listed as C5a antagonist
[10] = 24 h, drug pre-treatment, vs drug-free colitis control
[11] = 24 h, pre-treated 10 mg/kg/day oral or 0.3 mg/kg/day SC, P<0.05 vs colitis control
[12] = 8 days, pre-treated 3 mg/kg IV, P<0.05

## C[C@]12C=CC(=O)C=C1CC[C@@H]1[C@@H]2[C@@H](O)C[C@@]2(C)[C@H]1CC[C@]2(O)C(=O)CO [prednisolone]
[1]; 8 days, post-treated 1 mg/kg/day SC, FIG. 8D
  colon histopathology: showed no improvement in disease pathology; also recorded: IC infiltration, E, extensive haemorrhage (H) and erosion of ML
[1]; [3]
  colonic MPO levels: did not show any improvement in colonic MPO levels
  colonic tissue TNF-α levels: no significant reduction
  food consumption: no improvement in food consumption
[1]; 8 days, post-treatment 1 mg/kg/day SC
  colon oedema (wet-to-dry weight ratio): no effect on reducing oedema
[1]; 8 days, post-treatment (24 h after induction)
  mortality: no significant effect on reducing mortality
[1]; 8 days, pre-treated 1 mg/kg/day SC
  mortality rate: 11%
[1]; [4]
  colonic MPO levels: significantly reduced colonic MPO levels
  food consumption: ate significantly more food than colitis control rats
[1]; 8 days, pre-treated 1 mg/kg/day SC, P>0.05
  colon oedema (wet-to-dry weight ratio): no significant reductions
[1]; 8 days, pre-treated or post-treated 1 mg/kg/day SC, P>0.05
  change in body weight: lost weight over the 8 days, with no significant difference compared to colitis control rats; also recorded: lost considerable body weight
[1]; [5]
  colon histopathology: showed an improvement in pathology
[1]; Day 8, post-treated 1 mg/kg/day SC, P>0.05
  colon macroscopic score: did not have any improvement in macroscopic scores
[1]; Day 8, pre-treated 1 mg/kg/day SC, P<0.05
  colon macroscopic score: significantly improved macroscopic scores
[1]; [6]
  overall disease parameters / markers: reversal of pathology was not seen; also recorded: no appreciable therapeutic effects
[1]; [7]
  overall disease parameters / markers: only prednisolone pre-treated rats displayed any improvement in the disease parameters measured; also recorded: effective at reducing the majority of parameters measured

## AcF-[OPdChaWR] [PMX53]
Membrane attack complex
  effect on the formation of the membrane attack complex: no effect
[1]; 8 days, post-treated 10 mg/kg/day oral (PO), FIG. 8C
  colon histopathology: decrease in inflammatory cell accumulation and haemorrhage formation
[1]; 8 days, post-treated 10 mg/kg/day oral (PO), FIG. 8C, listed as C5a antagonist
  colon histopathology: showed an improvement in disease pathology; also recorded: IC infiltration and E, but with intact ML
[1]; 8 days, pre-treated 0.3 mg/kg SC
  deaths: no deaths
[1]; [5]
  colon histopathology: showed an improvement in pathology
[1]; [8]
  colon oedema (wet-to-dry weight ratio): significantly lower
  colonic MPO levels (neutrophil accumulation): significantly lower
[1]; [9]
  colon oedema (wet-to-dry weight ratio): significant improvement in colon wet-to-dry weight ratios; also recorded: significant reductions in wet-to-dry weight ratios
  colonic MPO levels (neutrophil accumulation): reduced to similar levels to those of the sham-operated animals
[1]; 8 days, prior to induction (10 mg/kg/day oral and 0.3 mg/kg/day SC) or 24 h after induction (1 or 10 mg/kg/day oral)
  mortality rate: ≤ 20%
[1]; 8 days, prior to induction (10 mg/kg/day oral and 0.3 mg/kg/day SC) or 24 h after induction (1 or 10 mg/kg/day oral), P<0.05
  food consumption: ate significantly more food
[1]; 8 days, prior to induction (10 mg/kg/day oral and 0.3 mg/kg/day SC) or 24 h after induction (1 or 10 mg/kg/day oral), P<0.05, listed as C5a antagonist
  food consumption: ate significantly more food than colitis control rats
[1]; 8 days, prior to induction (10 mg/kg/day oral and 0.3 mg/kg/day SC) or 24 h after induction (1 or 10 mg/kg/day oral), P<0.05 vs colitis control
  change in body weight: lost significantly less body weight
[1]; 8 days, prior to induction (10 mg/kg/day oral and 0.3 mg/kg/day SC) or 24 h after induction (1 or 10 mg/kg/day oral), P<0.05 vs colitis control, listed as C5a antagonist
  change in body weight: gained significant weight; also recorded: gained substantial weight over the 8 days, with significantly higher weights compared to colitis control rats
[1]; Day 8, prior to induction (10 mg/kg/day oral and 0.3 mg/kg/day SC) or 24 h after induction (1 or 10 mg/kg/day oral), P<0.05
  colon macroscopic score: significantly lower colon macroscopic scores
[1]; Day 8, prior to induction (10 mg/kg/day oral and 0.3 mg/kg/day SC) or 24 h after induction (1 or 10 mg/kg/day oral), P<0.05, listed as C5a antagonist
  colon macroscopic score: significantly improved macroscopic scores
[1]; after 8 days, vs drug-free colitis control, P<0.05
  colonic tissue TNF-α levels: significantly lower
[1]; over 8 days, vs drug-free colitis control (39%)
  mortality: reduced mortality
[1]; [6]
  overall disease parameters / markers: significant reduction in all disease markers
[1]; [7]
  overall disease parameters / markers: markedly reduced all the disease markers measured
[1]; rat model of chronic colitis, pre- and post-treatment
  overall disease pathology: both prevents and reverses disease pathology
C3a receptor
  binding to the C3a receptor: does not bind
C5a receptor; Finch et al, 1999
  specificity for the C5a receptor over other related human receptors: specific for the C5a receptor over other related human receptors
C5a receptor; human, rat and dog, Woodruff et al, 2001
  specificity for the C5a receptor across species: specific for the C5a receptor in human, rat and dog
[2]; 24-hour study
  colon TNF-α levels: significantly reduced
[2]; 24 h, drug pre-treatment, vs colitis control
  colon oedema: significantly reduced
[2]; [10]
  colon MPO levels (neutrophil accumulation): significantly reduced
  colon macroscopic score: significantly lower colon macroscopic scores
[2]; [11]
  colon MPO levels: significant improvement
  colon oedema (wet-to-dry weight ratio): significant reduction in wet-to-dry weight ratios
[2]; 24 h after TNBS, drug pre-treatment from 2 days before TNBS, vs drug-free colitis control
  food consumption: higher body weights and food intake
[2]; 24 h after TNBS, drug pre-treatment, vs drug-free colitis control
  change in body weight: higher body weights
[2]; 24 h study
  overall disease pathology / parameters measured: significantly improves disease pathology

## NC(N)=NCCC[C@H](NC(=O)COCC(c1ccccc1)c1ccccc1)C(=O)O [SB 290157, Ph2CHCH2OCH2CO-Arg-OH, reference compound]
[2]; 24 h, C3a antagonist 30 mg/kg bid IP, pre-treatment
  colon oedema (wet-to-dry weight ratio): did not have a significant effect
[2]; 24 h study
  overall disease pathology / parameters measured: effective in reducing some of the parameters measured; also recorded: able to modulate the pathology of IBD
[2]; 24 h study, 30 mg/kg i.p. twice daily, vs colitis control
  macroscopic damage: reduced the intensity of macroscopic damage

## infliximab
[1]; [12]
  colonic MPO levels: significantly reduced colonic MPO levels
  food consumption: ate significantly more food than drug-free rats
[1]; 8 days, pre-treated 3 mg/kg IV, P>0.05
  colon oedema (wet-to-dry weight ratio): no significant reductions
[1]; [5]
  colon histopathology: showed an improvement in pathology
[1]; 8 days, pre-treatment 3 mg/kg IV
  mortality: 20%
[1]; Day 8, pre-treated 3 mg/kg IV, P<0.05
  colon macroscopic score: significantly decreased scores
[1]; Day 8, pre-treated 3 mg/kg IV, P>0.05
  change in body weight: only a small weight gain at Day 8; however, these levels were not significantly higher than colitis control rats
[1]; [7]
  overall disease parameters / markers: did reduce the severity of lesions, it was not as effective as the C5a antagonist or prednisolone
[1]; pre-treatment (from 2 days before colitis induction), listed as Infliximab
  overall disease parameters / markers: significantly reduced disease parameters, however to a lesser extent than those observed in PMX53-treated rats
[2]; [10]
  colon macroscopic score: significant improvement seen in all treatment groups except for infliximab
